Experimental data taken from patent US20140228287A1, “1-[(3-CYANO-PYRIDIN-2-YL)METHYL]-3-METHYL-7-(2-BUTYN-1-YL)-8-[3-(R)-AMINO-PIPERIDIN-1-YL]-AXANTHINE FOR THE TREATMENT OF A METABOLIC DISORDER OF A PREDOMINANTLY CARNIVOROUS NON-HUMAN ANIMAL” (BOEHRINGER INGELHEIM VETMEDICA GMBH, priority 2010, published 2014).
Counter-ions that a name gives are not always drawn. Like-named read-outs stand apart in the source and are kept apart here.

Tests used:
[1] = system: insulin-resistant fa/fa rats; assay: Delayed OGTT in insulin-resistant fa/fa rats; type: in vivo, rat; settings: 3 mg/kg 16 h before OGTT
Description: Male Zucker Fatty (fa/fa) rats (Ico-Zucker-fa/fa (Orl)) were obtained from Iffa (France). Animals were fed ad libitum with a standard pelleted diet (Diet No. 3438, Provimi Kliba, Switzerland) and had free access to water. Animals were housed in groups with a 12 h/12 h light/dark cycle (lights out between 6 p.m. and 6 a.m.). The rats were used for the experiments between 7 and 12 weeks of age.
fa/fa rats (n=6 per group) were treated like the mice in Example 3, delayed OGTT. 1-[(3-cyano-pyridin-2-yl)methyl]-3-methyl-7-(2-butyn-1-yl)-8-[3-(R)-amino-piperidin-1-yl]-xanthine was dosed at 3 mg/kg 16 hours before the OGTT.
GLP-1 was measured using a commercially available GLP-1 (active) ELISA Kit (Catalog# EGLP-35K, Linco Research Inc., St. Charles/Mo., USA). Insulin was measured using a commercially available Rat Insulin ELISA Kit (Catalog#90060, Crystal Chem. Inc., Downers Grove/IL, USA).

[2] = target: T1, DPP IV (Felis catus, UniProt Q9N2I7); assay: Exploratory multiple dose PK/PD (1.0/3.0/9.0 mg/animal, 14 days) in cats: DPP IV activity; type: in vivo, cat; settings: once daily oral 14 days, read-out: DPP IV activity in cat plasma; for response vs control in vivo at 1 mg/animal: head 1 mg/animal (title 1.0 mg/animal); for response vs control in vivo at 3 mg/animal: head 3 mg/animal (title 3.0 mg/animal); for response vs control in vivo at 9 mg/animal: head 9 mg/animal (title 9.0 mg/animal)
T1 construct: Blood samples for the determination of this compound and DPP IV activity were collected; from tissue; host or cells: plasma of domestic short hair / purpose-bred cats dosed orally
Description: The aim of this study was to investigate the PK/PD effects of 1-[(3-cyano-pyridin-2-yl)methyl]-3-methyl-7-(2-butyn-1-yl)-8-[3-(R)-amino-piperidin-1-yl]-xanthine in cats following repeated oral administration of 0, 1, 3 and 9 mg/animal over 14 days corresponding to a dose of 0, 0.25, 0.75 and 2.25 mg/kg body weight for a cat weighing 4 kg. (Dosages were based on the free base: 1 mg 1-[(3-cyano-pyridin-2-yl)methyl]-3-methyl-7-(2-butyn-1-yl)-8-[3-(R)-amino-piperidin-1-yl]-xanthine monohydrochloride corresponds to 0.923 mg 1-[(3-cyano-pyridin-2-yl)methyl]-3-methyl-7-(2-butyn-1-yl)-8-[3-(R)-amino-piperidin-1-yl]-xanthine free base).
For this purpose, twelve clinically healthy male adult domestic short hair cats with a body weight range of 3.5-4.8 kg were used. The animals were randomly allocated to 4 groups, 3 animals per group. All animals were treated once daily orally for 14 days (i.e. on days 0-13). The test article was administered via capsules at doses of 1 (group II), 3 (group III) or 9 (group IV) mg of the monohydrochloride compound per animal; group I received placebo serving as controls. Blood samples for PK and PD (DPP IV activity) investigations were drawn at 0 h (i.e. prior to the 1st treatment), 0.5, 1, 2, 4, 8, 12 and 24 h after the 1st treatment as well as 24 h after the 3rd, 5th, 7th, 9th, 11th and 13th treatment and 0.5, 1, 2, 4, 8, 12 and 24 h after the 14th treatment.

T1 sequence (Q9N2I7 38-765 limits assumed): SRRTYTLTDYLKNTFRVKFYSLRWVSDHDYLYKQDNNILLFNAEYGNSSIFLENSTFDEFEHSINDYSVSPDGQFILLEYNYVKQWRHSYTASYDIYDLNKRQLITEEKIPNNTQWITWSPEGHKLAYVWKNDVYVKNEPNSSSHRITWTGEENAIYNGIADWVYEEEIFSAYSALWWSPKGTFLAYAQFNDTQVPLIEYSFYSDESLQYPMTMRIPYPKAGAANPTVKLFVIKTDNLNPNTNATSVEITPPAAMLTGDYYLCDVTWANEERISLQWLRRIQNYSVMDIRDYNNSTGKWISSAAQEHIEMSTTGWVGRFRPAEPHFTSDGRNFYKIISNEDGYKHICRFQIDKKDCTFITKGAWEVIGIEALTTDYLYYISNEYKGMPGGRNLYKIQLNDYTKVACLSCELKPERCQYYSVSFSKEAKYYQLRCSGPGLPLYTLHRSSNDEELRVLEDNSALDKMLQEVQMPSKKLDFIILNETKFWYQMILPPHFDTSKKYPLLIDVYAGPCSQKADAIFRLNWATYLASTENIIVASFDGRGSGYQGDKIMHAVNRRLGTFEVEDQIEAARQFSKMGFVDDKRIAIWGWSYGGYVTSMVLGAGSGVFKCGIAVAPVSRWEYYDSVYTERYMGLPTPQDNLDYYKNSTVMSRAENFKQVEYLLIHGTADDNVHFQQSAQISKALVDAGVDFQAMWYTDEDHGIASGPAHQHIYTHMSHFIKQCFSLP

Question: Which results are given for `CC#CCn1c(N2CCC[C@@H](N)C2)nc2c1c(=O)n(Cc1ncccc1C#N)c(=O)n2C` [1-[(3-cyano-pyridin-2-yl)methyl]-3-methyl-7-(2-butyn-1-yl)-8-[3-(R)-amino-piperidin-1-yl]-xanthine monohydrochloride]?
Answer: GLP-1 levels vs. control group [1]: elevated vs. the control group at all time points; Glucose AUC 0-90 min, Change versus control, Mean Diff. % [1]: −34.4%; Glucose AUC 0-90 min, Mean [1]: 177.00 mM·min; Glucose AUC 0-90 min, Median [1]: 165.00 mM·min; peak plasma insulin levels compared to vehicle treatment [1]: further elevations in peak plasma insulin levels; reduction of area under the glucose excursion curve [1]: 34.4%; rise of GLP-1 levels vs. baseline after the glucose stimulus [1]: 93%; Glucose, Change versus baseline, Mean Diff. % ([1]; 30 min): 71.7%; Glucose, Change versus control, Mean Diff. % ([1]; 30 min): −29.0%; Glucose, Mean ([1]; 30 min): 7.90 mM; Glucose, Median ([1]; 30 min): 8.00 mM; Glucose, Change versus baseline, Mean Diff. % ([1]; 60 min): 39.1%; Glucose, Change versus control, Mean Diff. % ([1]; 60 min): −23.0%; Glucose, Mean ([1]; 60 min): 6.40 mM; Glucose, Median ([1]; 60 min): 6.30 mM; Glucose, Change versus baseline, Mean Diff. % ([1]; 90 min): 34.8%; Glucose, Change versus control, Mean Diff. % ([1]; 90 min): −2.1%; Glucose, Mean ([1]; 90 min): 6.20 mM; Glucose, Median ([1]; 90 min): 6.30 mM; Glucose, Change versus baseline, Mean Diff. % ([1]; 120 min): 31.3%; Glucose, Change versus control, Mean Diff. % ([1]; 120 min): 5.7%; Glucose, Mean ([1]; 120 min): 6.04 mM; Glucose, Median ([1]; 120 min): 5.70 mM; Glucose, Change versus baseline, Mean Diff. % ([1]; 180 min): 29.6%; Glucose, Change versus control, Mean Diff. % ([1]; 180 min): 13.2%; Glucose, Mean ([1]; 180 min): 5.96 mM; Glucose, Median ([1]; 180 min): 6.10 mM; Glucose, Change versus control, Mean Diff. % ([1]; Pre-load): −15.6%; Glucose, Mean ([1]; Pre-load): 4.60 mM; Glucose, Median ([1]; Pre-load): 4.40 mM; response vs control in vivo at 1 mg/animal ([2]; 0.5 h, 0.5 h): 31.3%; response vs control in vivo at 3 mg/animal ([2]; 0.5 h, 0.5 h): 16%; response vs control in vivo at 9 mg/animal ([2]; 0.5 h, 0.5 h): 8%; response vs control in vivo at 1 mg/animal ([2]; 1 h, 1 h): 8.7%; response vs control in vivo at 3 mg/animal ([2]; 1 h, 1 h): 10.3%; response vs control in vivo at 9 mg/animal ([2]; 1 h, 1 h): 7.3%; response vs control in vivo at 1 mg/animal ([2]; 2 h, 2 h): 9.7%; response vs control in vivo at 3 mg/animal ([2]; 2 h, 2 h): 8%; response vs control in vivo at 9 mg/animal ([2]; 2 h, 2 h): 7%; response vs control in vivo at 1 mg/animal ([2]; 4 h, 4 h): 11.7%; response vs control in vivo at 3 mg/animal ([2]; 4 h, 4 h): 8%; response vs control in vivo at 9 mg/animal ([2]; 4 h, 4 h): 8%; response vs control in vivo at 1 mg/animal ([2]; 8 h, 8 h): 17%; response vs control in vivo at 3 mg/animal ([2]; 8 h, 8 h): 11.3%; response vs control in vivo at 9 mg/animal ([2]; 8 h, 8 h): 9.3%; response vs control in vivo at 1 mg/animal ([2]; 12 h, 12 h): 28%; response vs control in vivo at 3 mg/animal ([2]; 12 h, 12 h): 14%; response vs control in vivo at 9 mg/animal ([2]; 12 h, 12 h): 10.7%; response vs control in vivo at 1 mg/animal ([2]; 24 h, 24 h): 57.7%; response vs control in vivo at 3 mg/animal ([2]; 24 h, 24 h): 31.7%; response vs control in vivo at 9 mg/animal ([2]; 24 h, 24 h): 18%
